The target of this assay is T1, human D3-receptor (Homo sapiens, UniProt P35462).
T1 construct: host or cells: CCL 1,3 mouse fibroblasts
The assay can be described thus: D3 binding test (125iodosulpiride displacement). As to conditions: cloned human D3 receptor in CCL 1,3 mouse fibroblast membranes; 0.1 nM 125iodosulpiride; read-out: Ki value for the binding toward the D3 receptor. The procedure:
Cloned human D3-receptor-expressing CCL 1,3 mouse fibroblasts, obtainable from Res. Biochemicals Internat. One Strathmore Rd., Natick, Mass. 01760-2418 USA, were used for the binding studies.
The D3-expressing cells were multiplied in RPMI-1640 containing 10% fetal calf serum (GIBCO No. 041-32400 N); 100 U of penicillin/ml and 0.2% streptomycin (GIBO BRL, Gaithersburg, Md., USA). After 48 h, the cells were washed with PBS and incubated for 5 min with 0.05% trypsin-containing PBS. After that, the solution was neutralized with medium and the cells were collected by centrifuging at 300 g. In order to lyse the cells, the pellet was washed briefly with lysis buffer (5 mM Tris-HCl, pH 7.4, containing 10% glycerol) and after that incubated, at 4° C. for 30 min, at a concentration of 10^7 cells/ml of lysis buffer. […]
For the D3-receptor binding test, the membranes were suspended in incubation buffer (50 mM Tris-HCl, pH 7.4, containing 120 mM NaCl, 5 mM KC1, 2 mM CaCl2, 2 mM MgCl2, 10 μM quinolinol, 0.1% ascorbic acid and 0.1% BSA), at a concentration of approx. 10^6 cells/250 μl of test mixture, and incubated at 30° C. […] 0.1 nM ^125iodosulpiride in the presence and absence of the test substance. The nonspecific binding was determined using 10^−6 M spiperone. […]
The Ki values were determined by means of nonlinear regression analysis using the LIGAND program. […]

T1 sequence (P35462 whole entry): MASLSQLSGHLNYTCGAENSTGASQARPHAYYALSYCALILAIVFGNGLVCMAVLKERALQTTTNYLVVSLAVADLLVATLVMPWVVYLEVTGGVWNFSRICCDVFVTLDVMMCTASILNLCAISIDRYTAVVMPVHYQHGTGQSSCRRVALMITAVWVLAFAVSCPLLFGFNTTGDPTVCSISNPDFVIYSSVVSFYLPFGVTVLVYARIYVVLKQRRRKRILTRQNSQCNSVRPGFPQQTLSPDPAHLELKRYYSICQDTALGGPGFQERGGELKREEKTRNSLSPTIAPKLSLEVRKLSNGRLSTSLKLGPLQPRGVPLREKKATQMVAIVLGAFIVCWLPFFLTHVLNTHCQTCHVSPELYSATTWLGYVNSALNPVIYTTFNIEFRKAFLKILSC

Consider `Cn1c(SCCCN2CCC3c4c(Br)cccc4CCC32)nnc1-c1ccccc1` (mixture of isomers) [Example 1, (cis/trans) 9-Bromo-3-{3-[(4-methyl-5-phenyl-4H-1,2,4-triazol-3-yl)sulfanyl]propyl}-2,3,3a,4,5,9b-hexahydro-1H-benzo[e]indole], for which the Ki (commonly the dissociation constant of the complex between target and ligand, obtained from inhibition or displacement) came out at 50 nM.
